Measured values reported in patent US6737383B1, “Herbicidal oxadiazolidines” (priority 1999, dated 2004).

Key:
giant foxtail = experiment: Test B pre/postemergence giant foxtail; type: in vivo, Setaria faberii
Procedure, shortened: (§1)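 Herbicidal effect was estimated by eye on a ten-point control scale after plants spent twelve to sixteen days in a greenhouse following soil or foliar treatment. Foliar sprays targeted plants at one to four leaves; all doses were formulated in a non-phytotoxic solvent with surfactant.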

cocklebur = experiment: Test B pre/postemergence cocklebur; type: in vivo, Xanthium strumarium
Procedure, shortened: as §1

purple nutsedge = experiment: Test B pre/postemergence purple nutsedge; type: in vivo, Cyperus rotundus
Procedure, shortened: as §1

duck salad = experiment: Test B flood test duck salad; type: in vivo, Heteranthera limosa
Procedure, shortened: (§2)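 Read-out is a visual response score from 0 (no effect) to 10 (complete control), assigned by comparison with untreated controls. Treatment was applied at the 2-leaf stage, and plants stayed in the greenhouse for twelve to sixteen days before scoring.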

pigweed = experiment: Test B pre/postemergence pigweed; type: in vivo, Amaranthus retroflexus
Procedure, shortened: as §1

blackgrass = experiment: Test B pre/postemergence blackgrass; type: in vivo, Alopecurus myosuroides
Procedure, shortened: as §1

surinam grass = experiment: Test B pre/postemergence surinam grass; type: in vivo, Brachiaria decumbens
Procedure, shortened: as §1

sugar beet = experiment: Test B pre/postemergence sugar beet; type: in vivo, Beta vulgaris; conditions: for Plant response rating, Sugarbeets: Rate 250 g/ha
Procedure, shortened: as §1

rice = experiment: Test B flood test rice; type: in vivo, Oryza sativa
Procedure, shortened: as §2

velvetleaf = experiment: Test B pre/postemergence velvetleaf; type: in vivo, Abutilon theophrasti; conditions: for Plant response rating, Velvetleaf: Rate 250 g/ha
Procedure, shortened: as §1

bedstraw = experiment: Test B pre/postemergence bedstraw; type: in vivo, Galium aparine
Procedure, shortened: as §1

bamyardgrass = experiment: Test B flood test barnyardgrass; type: in vivo, Echinochloa crus-galli
Procedure, shortened: as §2

rape = experiment: Test B pre/postemergence rape; type: in vivo, Brassica napus
Procedure, shortened: as §1

corn = experiment: Test B pre/postemergence corn; type: in vivo, Zea mays
Procedure, shortened: as §1

morningglory = experiment: Test B pre/postemergence morningglory; type: in vivo, Ipomoea hederacea
Procedure, shortened: as §1

[1] = Postemergence, Rate 125 g/ha, scale of 0 to 10 where 0 is no effect and 10 is complete control
[2] = Postemergence, Rate 250 g/ha, scale 0 to 10, 0 no effect, 10 complete control
[3] = Preemergence, Rate 62 g/ha, scale 0 to 10 (0 no effect, 10 complete control)
[4] = Preemergence, Rate 125 g/ha, scale 0 to 10 (0 no effect, 10 complete control)
[5] = Preemergence, Rate 250 g/ha, scale of 0 to 10 where 0 is no effect and 10 is complete control
[6] = Preemergence, Rate 500 g/ha, scale 0 to 10 (0 no effect, 10 complete control)
[7] = Rate 62 g/ha, Postemergence, scale of 0 to 10 where 0 is no effect and 10 is complete control
[8] = Rate 500 g/ha, Postemergence, scale 0 to 10, 0 no effect, 10 complete control
[9] = Postemergence (flood test species), Rate 125 g/ha, scale of 0 to 10 where 0 is no effect and 10 is complete control
[10] = Rate 62 g/ha, Postemergence section, flood test species, scale of 0 to 10 where 0 is no effect and 10 is complete control
[11] = Rate 500 g/ha, listed under Postemergence (flood test species), scale 0 to 10, 0 no effect, 10 complete control
[12] = flood test, listed under Postemergence, Rate 250 g/ha, scale 0 to 10, 0 no effect, 10 complete control
[13] = Postemergence, Rate 62 g/ha, scale 0 to 10, 0 is no effect, 10 is complete control
[14] = Rate 125 g/ha, Postemergence, scale 0 to 10, 0 no effect, 10 complete control
[15] = Preemergence, Rate 125 g/ha, 0 is no effect, 10 is complete control
[16] = Preemergence, scale of 0 to 10 where 0 is no effect and 10 is complete control
[17] = Postemergence, scale 0 to 10, 0 is no effect, 10 is complete control

CC(C)N(C(=O)n1oc(=O)n(C(C)C)c1=O)c1ccc(Cl)cc1 [Compound 114]
Giant foxtail plant response rating (giant foxtail; [1]): 9 | Giant foxtail plant response rating (giant foxtail; [2]): 9 | Giant foxtail plant response rating (giant foxtail; [3]): 5 | Plant response rating, Giant foxtail (giant foxtail; [4]): 9 | Plant response rating, Giant foxtail (giant foxtail; [5]): 10 | Giant foxtail plant response rating (giant foxtail; [6]): 10 | Giant foxtail plant response rating (giant foxtail; [7]): 5 | Giant foxtail plant response rating (giant foxtail; [8]): 9 | Cocklebur plant response rating (cocklebur; [1]): 0 | Cocklebur plant response rating (cocklebur; [2]): 0 | Cocklebur plant response rating (cocklebur; [3]): 0 | Plant response rating, Cocklebur (cocklebur; [4]): 0 | Plant response rating, Cocklebur (cocklebur; [5]): 0 | Cocklebur plant response rating (cocklebur; [7]): 0 | Cocklebur plant response rating (cocklebur; [8]): 0 | Nutsedge plant response rating (purple nutsedge; [1]): 0 | Nutsedge plant response rating (purple nutsedge; [2]): 0 | Nutsedge plant response rating (purple nutsedge; [3]): 0 | Plant response rating, Nutsedge (purple nutsedge; [4]): 0 | Plant response rating, Nutsedge (purple nutsedge; [5]): 0 | Nutsedge plant response rating (purple nutsedge; [6]): 0 | Nutsedge plant response rating (purple nutsedge; [7]): 0 | Nutsedge plant response rating (purple nutsedge; [8]): 0 | Ducksalad plant response rating (duck salad; [9]): 0 | Ducksalad plant response rating (duck salad; [10]): 0 | Ducksalad plant response rating (duck salad; [11]): 0 | Ducksalad plant response rating (duck salad; [12]): 0 | Redroot pigweed plant response rating (pigweed; [1]): 2 | Redroot pigweed plant response rating (pigweed; [3]): 5 | Plant response rating, Redroot pigweed (pigweed; [4]): 8 | Plant response rating, Redroot pigweed (pigweed; [5]): 10 | Redroot pigweed plant response rating (pigweed; [6]): 10 | Redroot pigweed plant response rating (pigweed; [7]): 0 | Plant response rating, Redroot pigweed (pigweed; Rate 250 g/ha, Postemergence, scale 0 to 10, 0 is no effect, 10 is complete control): 3 | Redroot pigweed plant response rating (pigweed; [8]): 3 | Blackgrass plant response rating (blackgrass; [1]): 2 | Blackgrass plant response rating (blackgrass; [2]): 7 | Blackgrass plant response rating (blackgrass; [3]): 6 | Plant response rating, Blackgrass (blackgrass; [4]): 8 | Plant response rating, Blackgrass (blackgrass; [5]): 10 | Blackgrass plant response rating (blackgrass; [6]): 10 | Blackgrass plant response rating (blackgrass; [7]): 0 | Blackgrass plant response rating (blackgrass; [8]): 8 | B. signalgrass plant response rating (surinam grass; [13]): 0 | B. signalgrass plant response rating (surinam grass; [2]): 5 | B. signalgrass plant response rating (surinam grass; [3]): 0 | Plant response rating, B. signalgrass (surinam grass; [4]): 0 | Plant response rating, B. signalgrass (surinam grass; [5]): 7 | B. signalgrass plant response rating (surinam grass; [6]): 10 | B. signalgrass plant response rating (surinam grass; [14]): 0 | B. signalgrass plant response rating (surinam grass; Rate 500 g/ha, Postemergence, scale of 0 to 10 where 0 is no effect and 10 is complete control): 7 | Sugarbeets plant response rating (sugar beet; [1]): 3 | Sugarbeets plant response rating (sugar beet; [3]): 4 | Sugarbeets plant response rating (0 to 10 scale) (sugar beet; [15]): 6 | Plant response rating, Sugarbeets (sugar beet; [16]): 7 | Sugarbeets plant response rating (sugar beet; [6]): 7 | Sugarbeets plant response rating (sugar beet; [7]): 3 | Plant response rating, Sugarbeets (sugar beet; [17]): 4 | Sugarbeets plant response rating (sugar beet; [8]): 5 | Rice plant response rating (rice; [9]): 0 | Rice plant response rating (rice; [10]): 0 | Plant response rating, Rice (rice; Rate 250 g/ha, Postemergence (flood test), scale 0 to 10, 0 is no effect, 10 is complete control): 0 | Rice plant response rating (rice; [11]): 0 | Velvetleaf plant response rating (velvetleaf; [1]): 1 | Velvetleaf plant response rating (velvetleaf; [3]): 4 | Velvetleaf plant response rating (0 to 10 scale) (velvetleaf; [15]): 4 | Plant response rating, Velvetleaf (velvetleaf; [16]): 5 | Velvetleaf plant response rating (velvetleaf; [6]): 6 | Velvetleaf plant response rating (velvetleaf; [7]): 0 | Plant response rating, Velvetleaf (velvetleaf; [17]): 3 | Velvetleaf plant response rating (velvetleaf; [8]): 3 | Bedstraw plant response rating (bedstraw; [13]): 3 | Bedstraw plant response rating (bedstraw; [2]): 6 | Bedstraw plant response rating (bedstraw; [3]): 0 | Plant response rating, Bedstraw (bedstraw; [4]): 0 | Plant response rating, Bedstraw (bedstraw; [5]): 0 | Bedstraw plant response rating (bedstraw; [6]): 0 | Bedstraw plant response rating (bedstraw; [14]): 6 | Bedstraw plant response rating (bedstraw; [8]): 7 | Barnyardgrass plant response rating (bamyardgrass; [13]): 0 | Barnyardgrass plant response rating (bamyardgrass; Rate 125 g/ha, Postemergence section (flood test species), scale 0 to 10, 0 no effect, 10 complete control): 0 | Barnyardgrass plant response rating (bamyardgrass; [11]): 0 | Barnyardgrass plant response rating (bamyardgrass; [12]): 0 | Rape plant response rating (rape; [1]): 3 | Rape plant response rating (rape; [2]): 3 | Rape plant response rating (rape; [3]): 0 | Plant response rating, Rape (rape; [4]): 3 | Plant response rating, Rape (rape; [5]): 6 | Rape plant response rating (rape; [6]): 10 | Rape plant response rating (rape; [7]): 3 | Rape plant response rating (rape; [8]): 7 | Corn plant response rating (corn; [1]): 0 | Corn plant response rating (corn; [2]): 0 | Corn plant response rating (corn; [3]): 0 | Plant response rating, Corn (corn; [4]): 0 | Plant response rating, Corn (corn; [5]): 7 | Corn plant response rating (corn; [6]): 9 | Corn plant response rating (corn; [7]): 0 | Corn plant response rating (corn; [8]): 0 | Morningglory plant response rating (morningglory; [1]): 4 | Morningglory plant response rating (morningglory; [2]): 4 | Morningglory plant response rating (morningglory; [3]): 0 | Plant response rating, Morningglory (morningglory; [4]): 0 | Plant response rating, Morningglory (morningglory; [5]): 0 | Morningglory plant response rating (morningglory; [6]): 1 | Morningglory plant response rating (morningglory; [7]): 1 | Morningglory plant response rating (morningglory; [8]): 8
